Experimental data reported in patent US12295936B2, “Immunomodulating urea azalides” (Zoetis Services LLC, priority 2020, dated 2025).

Columns and labels:
Test in all cases: LPS-stimulated whole bovine blood assay, MSD cytokine detection
Format in all cases: cell-based
[1] = tested on: TNF-α; conditions: Bos taurus, LPS-stimulated bovine whole blood; read-out: TNF-α (IC50 μM)
[2] = tested on: IL-1β; conditions: overstimulation of IL-1β, LPS-stimulated bovine whole blood
[3] = tested on: IL-6; conditions: Bos taurus, LPS-stimulated bovine whole blood; read-out: IL-6 (IC50 μM)
Description: In order to correlate RNA sequencing data to cytokine changes the whole blood assay was utilized. […] The enhancement result represents an overall stimulation of cytokine levels due to cellular stress or potential toxicity with increasing concentrations of the compound, representing a typical bell shape response curve for immunomodulatory activity.

IC50 [1]	IC50 [3]	Structure (SMILES)	IL-1β OS of LPS [2]
14 µM	8 µM	CCCNC[C@]1(O)[C@H](C)O[C@@H](O[C@H]2[C@H](C)[C@@H](O[C@@H]3O[C@H](C)C[C@H](N(CCC)C(=O)N(C)c4ccccc4)[C@H]3O)[C@](C)(O)C[C@@H](C)CN[C@H](C)[C@@H](O)[C@](C)(O)[C@@H](CC)OC(=O)[C@@H]2C)C[C@@]1(C)OC [Example H-69, 1-((2S,3R,4S,6R)-2-(((2R,3S,4R,5R,8R,10R,11R,12S,13S,14R)-2-ethyl-3,4,10-trihydroxy-13-(((2R,4R,5S,6S)-5-hydroxy-4-methoxy-4,6-dimethyl-5-((propylamino)methyl)tetrahydro-2H-pyran-2-yl)oxy)-3,5,8,10,12,14-hexamethyl-15-oxo-1-oxa-6-azacyclopentadecan-11-yl)oxy)-3-hydroxy-6-methyltetrahydro-2H-pyran-4-yl)-3-methyl-3-phenyl-1-propylurea]	6 µM
13 µM	4 µM	CCCNC[C@]1(O)[C@H](C)O[C@@H](O[C@H]2[C@H](C)[C@@H](O[C@@H]3O[C@H](C)C[C@H](N(CC(C)C)C(=O)N(C)c4ccccc4)[C@H]3O)[C@](C)(O)C[C@@H](C)CN[C@H](C)[C@@H](O)[C@](C)(O)[C@@H](CC)OC(=O)[C@@H]2C)C[C@@]1(C)OC [Example H-70, 1-((2S,3R,4S,6R)-2-(((2R,3S,4R,5R,8R,10R,11R,12S,13S,14R)-2-ethyl-3,4,10-trihydroxy-13-(((2R,4R,5S,6S)-5-hydroxy-4-methoxy-4,6-dimethyl-5-((propylamino)methyl)tetrahydro-2H-pyran-2-yl)oxy)-3,5,8,10,12,14-hexamethyl-15-oxo-1-oxa-6-azacyclopentadecan-11-yl)oxy)-3-hydroxy-6-methyltetrahydro-2H-pyran-4-yl)-1-isobutyl-3-methyl-3-phenylurea]	6 µM
32 µM	35 µM	CCCNC[C@]1(O)[C@H](C)O[C@@H](O[C@H]2[C@H](C)[C@@H](O[C@@H]3O[C@H](C)C[C@H](N(Cc4cccnc4)C(=O)N(C)c4ccccc4)[C@H]3O)[C@](C)(O)C[C@@H](C)CN[C@H](C)[C@@H](O)[C@](C)(O)[C@@H](CC)OC(=O)[C@@H]2C)C[C@@]1(C)OC [Example H-71, 1-((2S,3R,4S,6R)-2-(((2R,3S,4R,5R,8R,10R,11R,12S,13S,14R)-2-ethyl-3,4,10-trihydroxy-13-(((2R,4R,5S,6S)-5-hydroxy-4-methoxy-4,6-dimethyl-5-((propylamino)methyl)tetrahydro-2H-pyran-2-yl)oxy)-3,5,8,10,12,14-hexamethyl-15-oxo-1-oxa-6-azacyclopentadecan-11-yl)oxy)-3-hydroxy-6-methyltetrahydro-2H-pyran-4-yl)-3-methyl-3-phenyl-1-(pyridin-3-ylmethyl)urea]	16 µM
179 µM	> 500 µM	CCCNC[C@]1(O)[C@H](C)O[C@@H](O[C@H]2[C@H](C)[C@@H](O[C@@H]3O[C@H](C)C[C@H](N(C)C(=O)Nc4ccccc4OC)[C@H]3O)[C@](C)(O)C[C@@H](C)CN[C@H](C)[C@@H](O)[C@](C)(O)[C@@H](CC)OC(=O)[C@@H]2C)C[C@@]1(C)OC [Example H-76, 1-((2S,3R,4S,6R)-2-(((2R,3S,4R,5R,8R,10R,11R,12S,13S,14R)-2-ethyl-3,4,10-trihydroxy-13-(((2R,4R,5S,6S)-5-hydroxy-4-methoxy-4,6-dimethyl-5-((propylamino)methyl)tetrahydro-2H-pyran-2-yl)oxy)-3,5,8,10,12,14-hexamethyl-15-oxo-1-oxa-6-azacyclopentadecan-11-yl)oxy)-3-hydroxy-6-methyltetrahydro-2H-pyran-4-yl)-3-(2-methoxyphenyl)-1-methylurea]	100 µM
> 250 µM	47 µM	CCCNC[C@]1(O)[C@H](C)O[C@@H](O[C@H]2[C@H](C)[C@@H](O[C@@H]3O[C@H](C)C[C@H](N(C)C(=O)Nc4ccccc4C)[C@H]3O)[C@](C)(O)C[C@@H](C)CN[C@H](C)[C@@H](O)[C@](C)(O)[C@@H](CC)OC(=O)[C@@H]2C)C[C@@]1(C)OC [Example H-81, 1-((2S,3R,4S,6R)-2-(((2R,3S,4R,5R,8R,10R,11R,12S,13S,14R)-2-ethyl-3,4,10-trihydroxy-13-(((2R,4R,5S,6S)-5-hydroxy-4-methoxy-4,6-dimethyl-5-((propylamino)methyl)tetrahydro-2H-pyran-2-yl)oxy)-3,5,8,10,12,14-hexamethyl-15-oxo-1-oxa-6-azacyclopentadecan-11-yl)oxy)-3-hydroxy-6-methyltetrahydro-2H-pyran-4-yl)-1-methyl-3-(o-tolyl)urea]	39 µM
8 µM	16 µM	CCCNC[C@]1(O)[C@H](C)O[C@@H](O[C@H]2[C@H](C)[C@@H](O[C@@H]3O[C@H](C)C[C@H](N(C)C(=O)N4Cc5ccccc5C4)[C@H]3O)[C@](C)(O)C[C@@H](C)CN[C@H](C)[C@@H](O)[C@](C)(O)[C@@H](CC)OC(=O)[C@@H]2C)C[C@@]1(C)OC [Example I-7, N-((2S,3R,4S,6R)-2-(((2R,3S,4R,5R,8R,10R,11R,12S,13S,14R)-2-ethyl-3,4,10-trihydroxy-13-(((2R,4R,5S,6S)-5-hydroxy-4-methoxy-4,6-dimethyl-5-((propylamino)methyl)tetrahydro-2H-pyran-2-yl)oxy)-3,5,8,10,12,14-hexamethyl-15-oxo-1-oxa-6-azacyclopentadecan-11-yl)oxy)-3-hydroxy-6-methyltetrahydro-2H-pyran-4-yl)-N-methylisoindoline-2-carboxamide]	6 µM
70 µM	250 µM	CC[C@H]1OC(=O)[C@H](C)[C@@H](O[C@H]2C[C@@](C)(OC)[C@](O)(CN3CCN(C)CC3)[C@H](C)O2)[C@H](C)[C@@H](O[C@@H]2O[C@H](C)C[C@H](N(C)C(=O)NC3CCCCC3)[C@H]2O)[C@](C)(O)C[C@@H](C)CN[C@H](C)[C@@H](O)[C@]1(C)O [Example J-1, 3-cyclohexyl-1-((2S,3R,4S,6R)-2-(((2R,3S,4R,5R,8R,10R,11R,12S,13S,14R)-2-ethyl-3,4,10-trihydroxy-13-(((2R,4R,5S,6S)-5-hydroxy-4-methoxy-4,6-dimethyl-5-((4-methylpiperazin-1-yl)methyl)tetrahydro-2H-pyran-2-yl)oxy)-3,5,8,10,12,14-hexamethyl-15-oxo-1-oxa-6-azacyclopentadecan-11-yl)oxy)-3-hydroxy-6-methyltetrahydro-2H-pyran-4-yl)-1-methylurea]	200 µM
> 500 µM	> 500 µM	CCNC(=O)N(C)[C@H]1C[C@@H](C)O[C@@H](O[C@@H]2[C@@H](C)[C@H](O[C@H]3C[C@@](C)(OC)[C@](O)(CN4CCN(C)CC4)[C@H](C)O3)[C@@H](C)C(=O)O[C@H](CC)[C@@](C)(O)[C@H](O)[C@@H](C)NC[C@H](C)C[C@@]2(C)O)[C@@H]1O [Example J-2, 3-ethyl-1-((2S,3R,4S,6R)-2-(((2R,3S,4R,5R,8R,10R,11R,12S,13S,14R)-2-ethyl-3,4,10-trihydroxy-13-(((2R,4R,5S,6S)-5-hydroxy-4-methoxy-4,6-dimethyl-5-((4-methylpiperazin-1-yl)methyl)tetrahydro-2H-pyran-2-yl)oxy)-3,5,8,10,12,14-hexamethyl-15-oxo-1-oxa-6-azacyclopentadecan-11-yl)oxy)-3-hydroxy-6-methyltetrahydro-2H-pyran-4-yl)-1-methylurea]	>500 µM
> 500 µM	> 500 µM	CC[C@H]1OC(=O)[C@H](C)[C@@H](O[C@H]2C[C@@](C)(OC)[C@](O)(CN3CCN(C)CC3)[C@H](C)O2)[C@H](C)[C@@H](O[C@@H]2O[C@H](C)C[C@H](N(C)C(N)=O)[C@H]2O)[C@](C)(O)C[C@@H](C)CN[C@H](C)[C@@H](O)[C@]1(C)O [Example J-5, 1-((2S,3R,4S,6R)-2-(((2R,3S,4R,5R,8R,10R,11R,12S,13S,14R)-2-ethyl-3,4,10-trihydroxy-13-(((2R,4R,5S,6S)-5-hydroxy-4-methoxy-4,6-dimethyl-5-((4-methylpiperazin-1-yl)methyl)tetrahydro-2H-pyran-2-yl)oxy)-3,5,8,10,12,14-hexamethyl-15-oxo-1-oxa-6-azacyclopentadecan-11-yl)oxy)-3-hydroxy-6-methyltetrahydro-2H-pyran-4-yl)-1-methylurea]	>500 µM
225 µM	> 500 µM	CC[C@H]1OC(=O)[C@H](C)[C@@H](O[C@H]2C[C@@](C)(OC)[C@](O)(CN3CCN(C)CC3)[C@H](C)O2)[C@H](C)[C@@H](O[C@@H]2O[C@H](C)C[C@H](N(C)C(=O)Nc3ccc(N(C)C)cc3)[C@H]2O)[C@](C)(O)C[C@@H](C)CN[C@H](C)[C@@H](O)[C@]1(C)O [Example J-6, 3-(4-(dimethylamino)phenyl)-1-((2S,3R,4S,6R)-2-(((2R,3S,4R,5R,8R,10R,11R,12S,13S,14R)-2-ethyl-3,4,10-trihydroxy-13-(((2R,4R,5S,6S)-5-hydroxy-4-methoxy-4,6-dimethyl-5-((4-methylpiperazin-1-yl)methyl)tetrahydro-2H-pyran-2-yl)oxy)-3,5,8,10,12,14-hexamethyl-15-oxo-1-oxa-6-azacyclopentadecan-11-yl)oxy)-3-hydroxy-6-methyltetrahydro-2H-pyran-4-yl)-1-methylurea]	>500 µM
